Source: patent US20160331662A1, “Compositions that Inhibit and Prevent the Formation of Dental Caries and Methods of Using the Same” (priority 2014, published 2016)

Columns and labels:
iSRCR1 [1] = target: T1, iSRCR1 (Homo sapiens, UniProt Q9UGM3); test: SPR binding of analytes to immobilized iSRCR1 (CM5 chip, 1:1 Langmuir); details: for direct binding to immobilized iSRCR1 (in words): substance alone over CM5 chip
T1 construct: strongly proves that a single SRCR domain contains the adherence sites for AgI/II and SspB; made in house; host or cells: Drosophila expression system
T1 sequence (Q9UGM3 102-202 limits assumed): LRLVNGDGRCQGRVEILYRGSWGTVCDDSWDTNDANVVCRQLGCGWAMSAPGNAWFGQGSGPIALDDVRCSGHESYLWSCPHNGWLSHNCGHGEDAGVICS
Description: (§1) Real time binding analyses of the SRCR domains with AgI/II fragments were carried out using the BIAcore 2000 system. […] Self association of iSRCR1 or iSRCR123 (at 2 μM) were also determined in a similar manner as described above. Finally to determine the effect of calcium SPR analysis was carried out by dialyzing the analytes and ligands in binding buffer devoid of CaCl2.
(§2) In addition, the SRCR holding two distinct surfaces compounded the elucidation of individual kinetics, and presently there are no modeling protocols available to determine the individual affinities for such a system, therefore for simplicity we have utilized a single site 1:1 Langmuir model. All experiments were carried out in triplicates and the kinetics of the association (KA) and dissociation (KD) rate constants were deduced using the 1:1 Langmuir Kinetic model on the BIA-Evaluation software. The concentration (C in μM) of analyte (FL^AgI/II or FL^SspB at 2 μM) that adhered to the immobilized ligand (iSRCR1, iSRCR123) within the flow cell was calculated using the formula C=(RU/MW)×(1/V), where RU is resonance unit (1 RU=1 pg of bound protein), MW is molecular weight of analyte and V is volume of flow cell (1.2×10^−10 L).

iSRCR123 [2] = target: T2, iSRCR123 (Homo sapiens, UniProt Q9UGM3); test: SPR binding of analytes to immobilized iSRCR123 (CM5 chip, 1:1 Langmuir); details: for direct binding to immobilized iSRCR123 (in words): substance alone over CM5 chip
T2 construct: multiple SRCR domains have better adherence capability compared to that of a single SRCR domain; made in house; host or cells: Drosophila expression system
T2 sequence (Q9UGM3 102-463 limits assumed): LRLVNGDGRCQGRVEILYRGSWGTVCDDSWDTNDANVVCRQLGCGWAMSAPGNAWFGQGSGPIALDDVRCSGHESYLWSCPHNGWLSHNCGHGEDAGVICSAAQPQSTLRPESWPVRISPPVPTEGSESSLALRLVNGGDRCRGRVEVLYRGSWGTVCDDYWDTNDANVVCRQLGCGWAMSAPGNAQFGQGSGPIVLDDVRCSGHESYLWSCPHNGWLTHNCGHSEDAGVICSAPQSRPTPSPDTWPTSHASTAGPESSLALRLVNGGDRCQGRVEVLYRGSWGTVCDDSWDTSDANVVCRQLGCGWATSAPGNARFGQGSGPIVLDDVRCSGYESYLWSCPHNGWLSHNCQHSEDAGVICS
Description: as §1, §2

S. gordonii DL1 [3] = test: Flow cytometric analysis of iSRCR adherence to bacteria; format: cell-based; details: 10 μM, compared with S. mutans
Description: (§3) S. mutans UA159 and S. gordonii DL1 cells were grown overnight in TSY broth media at 37° C. and washed thoroughly with FACS buffer (20 mM HEPES pH 7.4, 150 mM NaCl and 5% non-fat dry milk) to reduce non-specific binding. Subsequently, 10 μM of iSRCR1 or iSRCR123 were added to 100 μl of cells (1×10^7 cells/ml) in binding buffer (FACS buffer+2.5 mM CaCl2) and incubated for 60 min at 37° C. The cells were later washed thoroughly with binding buffer to remove unbound iSRCRs. Subsequently, Anti-His tag Alexafluor 488 antibody (1:50 dilution) (EMD Millipore, Inc) that adheres to the His tag present on SRCRs was added to the cells and incubated for 30 min, washed three times and resuspended in 200 μl of binding buffer. Samples without iSRCRs served as control. Samples were then assayed using the FACScan machine (BD Biosciences) at the Analytical and Preparative Cytometry Facility (APCF) at UAB, and data obtained was analyzed using FlowJo 7.2.4 software.

S. mutans UA159 [4] = test: as above; format: cell-based; details: 10 μM
Description: as §3

S. mutans UA159 [5] = test: Confocal microscopy of iSRCR adherence to bacteria; format: cell-based; details: 10 μM
Description: S. mutans UA159 and S. gordonii DL1 were grown overnight in TSY (30 g/L of Trypticase soy broth and 0.5 g/L yeast extract, pH 7.2) media on an eight-well Lab Tek Chamber slide system (Sigma). The cells were fixed with 3% paraformaldehyde, washed with binding buffer (20 mM HEPES pH 7.4, 150 mM NaCl and 2.5 mM CaCl2), and thereafter iSRCR1 or iSRCR123 (10 μM) were added to the cells and incubated for 60 min. The unbound SRCRs were removed by repeated washing using the binding buffer. Subsequently, Alexa fluor 488 conjugated Anti-His-tag antibody (EMD Millipore, Inc) (1:50 dilution) that can bind to the His Tag on SRCRs was added. After 60 min incubation the unbound antibody was washed away thoroughly using binding buffer, and the chamber walls were gently removed. Cover slips were then mounted with 15 μl of fluoromount-G with DAPI (Southern Biotech Inc) to stain bacterial nuclei and were sealed until ready to be imaged. The experiment without SRCRs served as control. All slides were imaged using Leica SP1 UV Confocal Laser Scanning Microscope and Zeiss LSM 710 Confocal Laser Scanning Microscope at the UAB-High resolution imaging facility (UAB-HRIF).

S. gordonii DL1 [6] = test: Aggregation assay (OD700 over 60 min); format: cell-based; details: iSRCR 10 μM or SAG, 6 mM CaCl2
Description: (§4) Aggregation assays were performed as described earlier with slight modifications. Briefly, S. mutans UA159 and S. gordonii DL1 cells were grown in TSY broth media overnight at 37° C. in the presence of 5% CO2. The bacteria were centrifuged at 5000×g and washed with a buffer containing 20 mM HEPES pH 7.4, 150 mM NaCl and re-suspended to an approximate OD700 of 1. The bacterial suspension (900 μl) was mixed with 100 μl of SAG or iSRCR1 (10 μM) or iSRCR123 ([…]) or commercially synthesized (Think Peptides, Inc) SRCRP2 peptide with fluorescein amidite (FAM) at the carboxyl end ([…]-[FAM]) (SEQ ID NO:9, at both 400 μg/ml and 1 mg/ml) in the presence of 6 mM CaCl2 and aggregation was measured by recording OD700over 60 min at 5 min intervals, where the buffer alone was used as control. All experiments were carried out at least five times, and the results were analyzed with One-way ANOVA. Post-hoc testing where *, P<0.05 was considered statistically significant and results were presented as the percentage of cells aggregated.

S. mutans UA159 [7] = test: Aggregation assay (OD700 over 60 min); format: cell-based; details: iSRCR 10 μM or SAG, 6 mM CaCl2
Description: as §4

AgI/II VheI (S. mutans) = test: SPR binding of SRCR peptide to immobilized surface protein (Example 3)
Chain of AgI/II VheI (S. mutans) (P23504 464-840 limits assumed): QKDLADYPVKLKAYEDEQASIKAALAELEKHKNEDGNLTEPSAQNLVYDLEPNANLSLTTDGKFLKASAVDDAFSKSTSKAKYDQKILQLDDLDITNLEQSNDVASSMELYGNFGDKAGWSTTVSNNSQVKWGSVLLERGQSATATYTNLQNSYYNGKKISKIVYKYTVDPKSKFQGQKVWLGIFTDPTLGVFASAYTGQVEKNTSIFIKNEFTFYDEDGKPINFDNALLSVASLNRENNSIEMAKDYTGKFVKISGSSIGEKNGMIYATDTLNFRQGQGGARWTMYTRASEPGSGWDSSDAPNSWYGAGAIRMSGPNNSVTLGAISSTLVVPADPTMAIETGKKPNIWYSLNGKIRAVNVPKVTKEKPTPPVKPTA
Description: (§5) Binding of the SRCR peptide […] (SEQ ID NO: 10) to immobilized bacterial surface proteins was determined using procedures as described in Example 1.
(§6) The interaction of the SRCR peptide […] (SEQ ID NO:10) with immobilized bacterial surface proteins AgI/II, SspB and GbpC as examined by surface plasmon resonance studies are shown in FIGS. 27A, 27B and 27C respectively, and binding affinities determined from these studies are listed in Table 8.

GbpC (S. mutans) = test: as above
Description: as §5, §6

SspB VheI (S. gordonii) = test: as above
Description: as §5, §6

iSRCR1 (Deglycosylated) = target: T3, iSRCR1 (Deglycosylated) (Homo sapiens, UniProt Q9UGM3); test: SPR binding of analytes to on-chip deglycosylated iSRCR1; details: ligand iSRCR1 (Deglycosylated)
T3 construct: strongly proves that a single SRCR domain contains the adherence sites for AgI/II and SspB; made in house; host or cells: Drosophila expression system
T3 sequence (Q9UGM3 102-202): as the sequence (Q9UGM3 102-202 limits assumed) above
Description: as §1
(§7) On-chip Deglycosylation of the iSRCR1 and iSRCR123 was carried out after immobilizing them on CM5 sensor chip. Enzymatic deglycosylation was done to remove N- and O-linked carbohydrates from iSRCR1 and iSRCR123. Briefly, after immobilization of iSRCR1 and iSRCR123, deglycosylation was carried out at native conditions by incubating the entire chip surface externally with a cocktail containing a total reaction volume of 40 μl made up of 4 μl of 10×G7reaction buffer, 4 μl of 10% NP40, 4 μl of Neuraminidase (Sigma), 18 μl water and 10 μl of O-glycosidase (New England Biolabs, Inc.,) and similarly following manufacturers protocols for EndoH (New England Biolabs, Inc). Later, the chip was sealed and incubated overnight at 37° C. Subsequently the chip was thoroughly washed with binding buffer (20 mM HEPES, 150 mM NaCl, 2.5 mM CaCl2) to remove the deglycosylating enzymes and other remnants. Binding studies with FL^AgI/II and FL^SspB and subfragments were then carried out as described above and regenerated as described in Table 2.
as §2

[8] = target: T4, iSRCR123 (Deglycosylated) (Homo sapiens, UniProt Q9UGM3); test: SPR binding of analytes to on-chip deglycosylated iSRCR123; details: ligand iSRCR123 (Deglycosylated)
T4 construct: multiple SRCR domains have better adherence capability compared to that of a single SRCR domain; made in house; host or cells: Drosophila expression system
T4 sequence (Q9UGM3 102-463 limits assumed): as the sequence (Q9UGM3 102-463 limits assumed) above
Description: as §1, §7, §2

iSRCR1 [9] = target: T1, iSRCR1; test: Competition adherence SPR on immobilized iSRCR1; format: binding; details: FL injected first
Description: (§8) To determine whether AgI/II domains bound to the same site on SRCR domains, competitive binding SPR experiments were conducted in triplicates as previously described where each fragment of AgI/II (FL, A3VP1, or C123) or SspB (FL, A3VP1 or C123) was initially passed over the chip surface immobilized with either iSRCR1, iSRCR123 or SAG for 60 seconds to saturate available binding sites. The response curve of AgI/II or SspB first fragment was recorded, where the maximal RU (RU1) was considered as the base line for the second injection, and thereafter the competing fragment was injected and its response was recorded as RU2. The adherence of the second fragment was then calculated (RU2−RU1) for all SPR competing assay as reported earlier.

iSRCR123 [10] = target: T2, iSRCR123; test: Competition adherence SPR on immobilized iSRCR123; format: binding; details: FL injected first
Description: as §8

SAG = target: T5, SAG (Homo sapiens, UniProt Q9UGM3); details: from reference [15]; read-out: affinity of interaction with SAG; cited from earlier work
T5 construct: from tissue; host or cells: saliva (purified SAG, gift)
T5 sequence (Q9UGM3 20-2413): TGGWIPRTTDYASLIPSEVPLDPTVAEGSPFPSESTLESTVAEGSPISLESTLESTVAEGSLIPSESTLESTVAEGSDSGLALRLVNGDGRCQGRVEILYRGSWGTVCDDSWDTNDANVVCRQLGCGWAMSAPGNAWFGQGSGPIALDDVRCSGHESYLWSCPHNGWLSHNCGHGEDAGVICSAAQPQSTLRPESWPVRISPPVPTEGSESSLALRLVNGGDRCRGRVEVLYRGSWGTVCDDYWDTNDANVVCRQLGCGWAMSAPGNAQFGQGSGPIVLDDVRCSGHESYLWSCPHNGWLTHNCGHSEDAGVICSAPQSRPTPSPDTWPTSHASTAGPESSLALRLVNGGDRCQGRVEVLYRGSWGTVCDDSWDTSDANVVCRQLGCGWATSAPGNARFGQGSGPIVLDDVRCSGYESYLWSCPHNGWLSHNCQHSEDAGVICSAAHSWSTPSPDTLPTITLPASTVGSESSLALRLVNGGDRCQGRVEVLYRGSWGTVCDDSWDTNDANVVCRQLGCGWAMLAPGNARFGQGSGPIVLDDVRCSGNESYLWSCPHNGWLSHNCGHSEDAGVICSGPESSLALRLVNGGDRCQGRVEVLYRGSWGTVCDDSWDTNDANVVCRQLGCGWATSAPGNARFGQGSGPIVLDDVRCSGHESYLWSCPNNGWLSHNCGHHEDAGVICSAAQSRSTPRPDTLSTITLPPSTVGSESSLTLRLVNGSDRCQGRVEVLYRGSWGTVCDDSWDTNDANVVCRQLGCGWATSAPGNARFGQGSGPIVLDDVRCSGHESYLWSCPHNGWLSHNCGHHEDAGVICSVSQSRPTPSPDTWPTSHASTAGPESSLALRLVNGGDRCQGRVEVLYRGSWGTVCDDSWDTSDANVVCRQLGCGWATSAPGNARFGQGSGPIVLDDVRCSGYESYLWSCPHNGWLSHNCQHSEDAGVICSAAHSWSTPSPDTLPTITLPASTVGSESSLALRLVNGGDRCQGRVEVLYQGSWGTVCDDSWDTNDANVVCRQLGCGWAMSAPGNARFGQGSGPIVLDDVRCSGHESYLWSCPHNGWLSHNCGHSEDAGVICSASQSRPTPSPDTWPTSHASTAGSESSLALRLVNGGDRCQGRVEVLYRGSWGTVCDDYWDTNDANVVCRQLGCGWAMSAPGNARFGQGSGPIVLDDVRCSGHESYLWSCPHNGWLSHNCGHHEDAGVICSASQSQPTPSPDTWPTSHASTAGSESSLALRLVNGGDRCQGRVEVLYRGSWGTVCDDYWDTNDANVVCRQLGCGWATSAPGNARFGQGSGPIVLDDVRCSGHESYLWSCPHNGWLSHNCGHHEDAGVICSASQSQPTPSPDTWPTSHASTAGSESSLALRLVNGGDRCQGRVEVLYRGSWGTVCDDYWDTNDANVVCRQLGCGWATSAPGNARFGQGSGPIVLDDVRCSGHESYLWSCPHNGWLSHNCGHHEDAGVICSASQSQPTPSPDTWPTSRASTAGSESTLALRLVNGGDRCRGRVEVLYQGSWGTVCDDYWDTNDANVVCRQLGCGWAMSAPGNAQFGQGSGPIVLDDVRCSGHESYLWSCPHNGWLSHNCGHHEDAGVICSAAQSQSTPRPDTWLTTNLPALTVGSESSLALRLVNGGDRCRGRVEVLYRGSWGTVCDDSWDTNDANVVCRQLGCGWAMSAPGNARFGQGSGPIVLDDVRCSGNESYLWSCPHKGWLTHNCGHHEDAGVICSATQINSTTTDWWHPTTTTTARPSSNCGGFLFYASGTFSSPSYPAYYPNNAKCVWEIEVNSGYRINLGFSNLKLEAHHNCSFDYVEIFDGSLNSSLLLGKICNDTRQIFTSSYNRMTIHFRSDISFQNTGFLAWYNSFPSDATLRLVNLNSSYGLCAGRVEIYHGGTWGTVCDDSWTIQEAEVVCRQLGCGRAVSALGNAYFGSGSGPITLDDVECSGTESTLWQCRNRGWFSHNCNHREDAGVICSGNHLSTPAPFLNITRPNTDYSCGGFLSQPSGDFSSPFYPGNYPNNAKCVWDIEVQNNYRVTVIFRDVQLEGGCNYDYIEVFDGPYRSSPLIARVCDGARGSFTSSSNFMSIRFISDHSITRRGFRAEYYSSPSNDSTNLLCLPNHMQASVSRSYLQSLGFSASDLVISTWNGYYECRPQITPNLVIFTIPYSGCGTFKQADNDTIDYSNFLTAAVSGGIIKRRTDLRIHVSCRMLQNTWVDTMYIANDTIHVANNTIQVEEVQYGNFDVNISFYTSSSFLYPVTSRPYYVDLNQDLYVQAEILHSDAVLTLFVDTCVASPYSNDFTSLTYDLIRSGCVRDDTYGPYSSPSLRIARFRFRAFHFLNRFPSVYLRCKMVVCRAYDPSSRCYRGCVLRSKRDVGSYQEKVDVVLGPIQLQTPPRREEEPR

thaumatin [reference compound]
direct binding to immobilized iSRCR1 (in words) (iSRCR1 [1]): not
direct binding to immobilized iSRCR123 (in words) (iSRCR123 [2]): not

iSRCR123: recombinant construct of three tandem SRCR domains of Gp340 (43 kDa)
adherence by FACS (in words) (S. gordonii DL1 [3]): lower adherence
increase in fluorescence intensity compared to the control (S. mutans UA159 [4]): ~100 fold
binding to cells by confocal microscopy (in words) (S. mutans UA159 [5]): binding
percentage of cells aggregated (S. gordonii DL1 [6]): 48%
percentage of cells aggregated (S. mutans UA159 [7]): 69%

Lysozyme [reference compound]
direct binding to immobilized iSRCR1 (in words) (iSRCR1 [1]): binding
direct binding to immobilized iSRCR123 (in words) (iSRCR123 [2]): binding

ETNDANVVARQL [SRCR peptide]
KA (AgI/II VheI (S. mutans)): 1.56e+08 M⁻¹
Kd (AgI/II VheI (S. mutans)): 6.42 nM
Rmax (AgI/II VheI (S. mutans)): 43.3 Ru
ka (AgI/II VheI (S. mutans)): 1.08 × 10^7 1/ms
kd (AgI/II VheI (S. mutans)): 0.696 s⁻¹
KA (GbpC (S. mutans)): 2.57e+08 M⁻¹
Kd (GbpC (S. mutans)): 3.89 nM
Rmax (GbpC (S. mutans)): 232 Ru
ka (GbpC (S. mutans)): 1.47 × 10^7 1/ms
kd (GbpC (S. mutans)): 0.0573 s⁻¹
KA (SspB VheI (S. gordonii)): 1.42e+08 M⁻¹
Kd (SspB VheI (S. gordonii)): 7.02 nM
Rmax (SspB VheI (S. gordonii)): 110 Ru
ka (SspB VheI (S. gordonii)): 4.44 × 10^6 1/ms
kd (SspB VheI (S. gordonii)): 0.0312 s⁻¹

FL^AgI/II: S. mutans AgI/II full length construct (167.5 kDa)
KA (iSRCR1 [1]; ligand iSRCR1): 1.31e+08 M⁻¹
Kd (iSRCR1 [1]; ligand iSRCR1): 7.69 nM
ka (iSRCR1 [1]; ligand iSRCR1): 127000 M⁻¹ s⁻¹
kd (iSRCR1 [1]; ligand iSRCR1): 0.000976 s⁻¹
KA (iSRCR1 (Deglycosylated)): 865000 M⁻¹
Kd (iSRCR1 (Deglycosylated)): 1160 nM
ka (iSRCR1 (Deglycosylated)): 49700 M⁻¹ s⁻¹
kd (iSRCR1 (Deglycosylated)): 0.0575 s⁻¹
quantity of protein that adhered to iSRCR123, higher than iSRCR1 (iSRCR123 [2]; analyte at 2 μM, iSRCR123 versus iSRCR1): 16%
KA (iSRCR123 [2]; ligand iSRCR123): 1.34e+08 M⁻¹
Kd (iSRCR123 [2]; ligand iSRCR123): 7.46 nM
ka (iSRCR123 [2]; ligand iSRCR123): 99700 M⁻¹ s⁻¹
kd (iSRCR123 [2]; ligand iSRCR123): 0.000743 s⁻¹
KA [8]: 6.82e+06 M⁻¹
Kd [8]: 147 nM
ka [8]: 3160 M⁻¹ s⁻¹
kd [8]: 0.000464 s⁻¹
inhibition of binding of the A3VP1 fragment of the same protein (iSRCR1 [9]): 46%
inhibition of binding of the C123 fragment of the same protein (iSRCR1 [9]): 36%
inhibition of binding of the A3VP1 fragment of the same protein (iSRCR123 [10]): 44%
inhibition of binding of the C123 fragment of the same protein (iSRCR123 [10]): 25%
Kd (SAG): 33.3 nM
